Source: PubChem BioAssay (NCI)
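Protocol summary: plate cells (96-well), add compound at 5 concentrations, incubate 48 h, interpolate endpoints linearly. GI50 is the concentration that inhibits growth by half. TGI: total growth inhibition.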

Experiments:
Test in all cases: inhibition of tumour cell growth, NCI panel, 48 h
786-0 renal = system: 786-0 renal
A498 renal = system: A498 renal
HL-60(TB) leukemia = system: HL-60(TB) leukemia
HT29 colon = system: HT29 colon
NCI-H226 lung = system: NCI-H226 lung
NCI-H460 lung = system: NCI-H460 lung
RXF 393 renal = system: RXF 393 renal
SK-MEL-28 melanoma = system: SK-MEL-28 melanoma
SNB-75 CNS = system: SNB-75 CNS
TK-10 renal = system: TK-10 renal

Structure (SMILES) | GI50 (786-0 renal) [µM] | TGI (786-0 renal) [µM] | GI50 (A498 renal) [µM] | TGI (A498 renal) [µM] | GI50 (HL-60(TB) leukemia) [µM] | TGI (HL-60(TB) leukemia) [µM] | GI50 (HT29 colon) [µM] | TGI (HT29 colon) [µM] | GI50 (NCI-H226 lung) [µM] | TGI (NCI-H226 lung) [µM] | GI50 (NCI-H460 lung) [µM] | TGI (NCI-H460 lung) [µM] | GI50 (RXF 393 renal) [µM] | TGI (RXF 393 renal) [µM] | GI50 (SK-MEL-28 melanoma) [µM] | TGI (SK-MEL-28 melanoma) [µM] | GI50 (SNB-75 CNS) [µM] | TGI (SNB-75 CNS) [µM] | GI50 (TK-10 renal) [µM] | TGI (TK-10 renal) [µM]
[N-]=[N+]=NCCCCCC(=O)OC(C(=O)c1ccccc1)c1cccc(OCC(=O)NCCOCCOCCNC(=O)CCCC[C@@H]2SC[C@@H]3NC(=O)N[C@@H]32)c1 (stereo not given in full) | > 100 | > 100 | > 100 | > 100 | 27.8 | > 100 | > 100 | > 100 | > 100 | > 100 | > 100 | > 100 | 56.3 | > 100 | > 100 | > 100 | 95.8 | > 100 | > 100 | > 100
Cc1cc(N2CCOCC2)nc(N[C@@H]2CCC[C@H](Nc3ccnc4cc(Cl)ccc34)C2)n1 | 1.73 | 3.27 | 1.57 | 4.4 | 1.98 | 3.87 | 2.13 | 5.24 | 4.89 | 17.1 | 2.66 | 8.64 | 1.44 | 3.11 | 2.01 | 3.8 | 1.6 | 4.01 | 2.15 | 4.09
NCCCCCCCn1c2c(c3ccccc3c1=O)C(=O)c1ccccc1-2 | 1.38 | 2.75 | 3.26 | 11.8 | 1.38 | 2.87 | 1.29 | 2.6 | 8.37 | 22.2 | 0.478 | 2.59 | 1.57 | 3.39 | 1.75 | 3.23 | 2.17 | 4.55 | 1.67 | 3.29
COc1cc(C2SCC(=O)N2c2ncc(C)s2)cc(OC)c1OC (stereo not given) | > 50 | > 50 | 0.366 | > 50 | 28.7 | > 50 | 23.3 | > 50 | > 50 | > 50 | 25.7 | > 50 | 27.5 | > 50 | > 50 | > 50 | 14.4 | > 50 | 21.4 | > 50
Oc1ccc(-c2nc3ccccc3s2)cc1CN(Cc1ccccn1)Cc1ccccn1 | 0.353 | 10.1 | 2.66 | 18.6 | 2.14 | 13.3 | 6.74 | 19.9 | 0.21 | 3.5 | 0.228 | 10.5 | 1.64 | 9.96 | 2.35 | 15.3 | 1.22 | 15.3 | 0.486 | 34.6
O=c1cc(-c2cccc3c2Sc2ccccc2S3)oc(N2CCOCC2)c1 | 4.05 | 18.3 | 0.323 | 3.79 | 11.6 | 32.3 | 8.82 | 23.5 | 10.8 | 34.3 | 12.7 | 31.2 | 1.76 | 8.05 | 11.1 | 24.1 | 4.97 | 19.9 | 12.2 | 25
COc1cccc(NC(=O)c2sc3nc(C)c(C(O)c4ccccc4)cc3c2N)c1 (stereo not given) | 0.665 | 26.6 | 0.0971 | 0.615 | 0.231 | 0.742 | 0.3 | 14 | 2.03 | 23.7 | 0.324 | 3.21 | 0.226 | 2.75 | 3.65 | 35.3 | 0.174 | 4.55 | 2.03 | 65.1
C/C(CC(=O)Nc1ccc(C)c(C)c1)=N\NC(N)=O | – | > 100 | – | > 100 | – | > 100 | – | > 100 | – | > 100 | – | > 100 | – | > 100 | – | > 100 | – | > 100 | – | > 100
CN(Cc1ccccc1)c1ccc(CO)c(Cl)c1 | 15.7 | > 100 | 0.0652 | 0.212 | 17.4 | 80 | 9.63 | > 81.4 | 0.142 | 0.324 | 1.72 | 14.6 | 13.1 | > 60.9 | 50.5 | > 100 | 22.4 | > 80.7 | 0.225 | 1.01
O=C(c1ccccc1)C1OC12C(=O)Nc1c(Cl)cc(Cl)cc12 (stereo not given) | – | > 100 | – | > 100 | – | 36 | – | > 100 | – | > 100 | – | > 100 | – | > 100 | – | > 100 | – | 29.5 | – | > 100
Cc1csc(/C=C/C(=O)c2nnn(-c3ccnc4c(C(F)(F)F)cccc34)c2C)c1 | > 100 | > 100 | > 100 | > 100 | 29.7 | > 100 | 27 | > 100 | 53.8 | > 100 | 43.5 | > 100 | > 100 | > 100 | 71.1 | > 100 | 27.3 | 99.4 | 87.1 | > 100
